The values below come from ChEMBL document CHEMBL2380224, “Fragment-based ligand design of novel potent inhibitors of tankyrases” (J Med Chem, 2013).

Broadly, the IC50 is the concentration that inhibits the measured activity by half. Lower therefore signals higher potency. As a reminder, the inhibition is the drop in the measured response relative to a control, in per cent. Low readings indicate a weak effect, high ones a strong effect.

The species named for one test is Homo sapiens. The test is described as follows: Selectivity ratio of IC50 for PARP2 (unknown origin) to IC50 for TNKS2 PARP domain (947 to 1162) (unknown origin).
In test [1] the target is T1, Poly [ADP-ribose] polymerase tankyrase-1 (Homo sapiens, UniProt O95271).
T1 sequence (O95271 whole entry): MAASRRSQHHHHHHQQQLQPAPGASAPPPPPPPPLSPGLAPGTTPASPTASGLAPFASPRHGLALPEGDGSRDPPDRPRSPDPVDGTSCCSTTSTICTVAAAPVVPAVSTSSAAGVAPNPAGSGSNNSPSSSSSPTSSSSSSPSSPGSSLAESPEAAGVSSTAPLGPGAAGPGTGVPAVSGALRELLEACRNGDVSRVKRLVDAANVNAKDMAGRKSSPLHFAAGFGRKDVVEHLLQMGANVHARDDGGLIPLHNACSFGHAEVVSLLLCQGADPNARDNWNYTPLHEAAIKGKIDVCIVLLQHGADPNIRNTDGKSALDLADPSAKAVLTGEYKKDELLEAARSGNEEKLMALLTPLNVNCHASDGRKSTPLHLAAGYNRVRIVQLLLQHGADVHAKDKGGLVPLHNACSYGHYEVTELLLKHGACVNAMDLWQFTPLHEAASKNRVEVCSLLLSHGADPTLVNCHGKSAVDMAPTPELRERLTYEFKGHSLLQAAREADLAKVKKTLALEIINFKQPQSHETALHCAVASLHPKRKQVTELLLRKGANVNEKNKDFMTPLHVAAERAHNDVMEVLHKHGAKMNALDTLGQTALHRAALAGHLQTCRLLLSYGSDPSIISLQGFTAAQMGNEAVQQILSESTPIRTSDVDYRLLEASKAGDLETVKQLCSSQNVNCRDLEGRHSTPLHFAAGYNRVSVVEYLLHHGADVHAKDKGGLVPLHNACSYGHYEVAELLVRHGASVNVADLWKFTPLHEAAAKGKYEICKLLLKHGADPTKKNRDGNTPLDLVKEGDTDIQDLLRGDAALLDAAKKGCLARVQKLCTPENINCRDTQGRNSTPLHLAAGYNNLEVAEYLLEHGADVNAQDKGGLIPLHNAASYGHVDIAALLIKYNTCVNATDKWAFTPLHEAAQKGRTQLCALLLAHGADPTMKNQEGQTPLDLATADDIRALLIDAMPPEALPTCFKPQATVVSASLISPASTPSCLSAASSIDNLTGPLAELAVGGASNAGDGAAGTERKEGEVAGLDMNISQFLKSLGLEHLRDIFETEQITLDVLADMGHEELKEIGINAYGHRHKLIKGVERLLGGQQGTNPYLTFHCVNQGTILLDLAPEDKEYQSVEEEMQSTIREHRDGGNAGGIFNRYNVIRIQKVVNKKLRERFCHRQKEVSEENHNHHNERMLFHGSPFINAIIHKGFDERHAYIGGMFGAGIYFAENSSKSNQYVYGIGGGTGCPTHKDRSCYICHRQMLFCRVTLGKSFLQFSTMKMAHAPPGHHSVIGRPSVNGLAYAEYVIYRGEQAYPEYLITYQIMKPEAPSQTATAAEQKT
Kind of test: Inhibition of TNKS1 (unknown origin).

The target of test [2] is T2, Protein mono-ADP-ribosyltransferase TIPARP (Homo sapiens) (UniProt Q7Z3E1).
T2 sequence (whole entry): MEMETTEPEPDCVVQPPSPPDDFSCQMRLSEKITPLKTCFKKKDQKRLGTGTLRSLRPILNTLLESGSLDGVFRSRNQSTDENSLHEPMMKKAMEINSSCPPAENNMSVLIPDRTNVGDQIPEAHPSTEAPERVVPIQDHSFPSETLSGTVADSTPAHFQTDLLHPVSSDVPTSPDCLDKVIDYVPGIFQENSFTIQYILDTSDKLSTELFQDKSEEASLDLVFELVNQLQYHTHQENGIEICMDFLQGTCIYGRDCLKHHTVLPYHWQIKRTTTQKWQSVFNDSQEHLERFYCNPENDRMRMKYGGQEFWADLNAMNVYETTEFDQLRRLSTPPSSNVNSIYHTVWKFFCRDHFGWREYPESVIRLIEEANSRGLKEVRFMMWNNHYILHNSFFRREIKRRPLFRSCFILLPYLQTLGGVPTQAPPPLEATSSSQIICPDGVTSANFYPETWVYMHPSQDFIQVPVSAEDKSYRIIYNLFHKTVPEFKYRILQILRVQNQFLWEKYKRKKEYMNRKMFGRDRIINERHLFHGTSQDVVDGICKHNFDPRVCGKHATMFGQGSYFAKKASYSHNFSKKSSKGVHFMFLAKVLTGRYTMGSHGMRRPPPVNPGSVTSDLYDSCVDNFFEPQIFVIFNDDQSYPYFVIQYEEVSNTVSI
The test is described as follows: Inhibition of PARP7 (unknown origin) at 10 uM relative to control.

Regarding `Cc1cc(=O)[nH]c2cc(-c3ccccc3F)ccc12`, the Ratio IC50 in the test listed under Homo sapiens was above 100. Moreover, it took 860 nM to reach half-maximal inhibition in test [1] (IC50). In addition, the inhibition in test [2] was found to be 37%.
